The test has as its system amphetamine-induced symptoms in rats. Nature of the test: antagonism of amphetamine-induced symptoms in rats (block of characteristic amphetamine cage movement behavior). It counts as in vivo. Particulars: Rattus norvegicus, ip. An excerpt: The tranquilizing agents of the present invention are characterized by relief of such schizophrenic manifestations in humans as hallucinations, hostility, suspiciousness, emotional or social withdrawal, anxiety, agitation and tension. Standard procedures of detecting and comparing tranquilizing activity of compounds in this series and for which there is an excellent correlation with human efficacy is the antagonism of amphetamine-induced symptoms in rats test, as taught by A. Weissman, et al., J. Pharmacol. Exp. Ther., 151, 339 (1966) and by Quinton, et al.,Nature, 200, 178 (1963).
The effects of the compounds of the present invention on prominent amphetamine-induced symptoms were studied in rats by a rating scale modeled after the one reported by Quinton and Halliwell, and Weissman. Groups of five rats were placed in a covered plastic cage measuring approximately 26 cm. × 42 cm. × 16 cm. After a brief period of acclimation in the cage, the rats in each groups were treated intraperitoneally (i.p.) with the test compound. […] On the basis of dose-response data after amphetamine it was possible to determine the effective dose of the compound necessary to antagonize or block the characteristic amphetamine behavior of cage movement for 50 percent of the rats tested (ED50). The time of rating chosen coincides with the peak action of amphetamine which is 60-80 min. after treatment with this agent.
Employing the above-described procedure, the following compounds were tested for their ability to block the behavior effects of amphetamine, the results being reported as the ED50 in mg./kg. at the indicated times: […]

[1] abbreviates: rats, i.p., d-amphetamine sulfate 5 mg./kg. i.p. given 1 hr. after test compound, read-out: ED50 to antagonize or block amphetamine behavior, 1 hr.
Where [2] appears, read: rats, i.p., d-amphetamine sulfate 5 mg./kg. i.p. given 5 hrs. after test compound, read-out: ED50 to antagonize or block amphetamine behavior, 5 hrs.
[3] abbreviates: rats, i.p., d-amphetamine sulfate 5 mg./kg. i.p. given 24 hrs. after test compound, read-out: ED50 to antagonize or block amphetamine behavior, 24 hrs.

The values that follow come from patent US4001263A, “5-Aryl-1,2,3,4-tetrahydro-γ-carbolines” (Pfizer Inc., priority 1975, dated 1977).

SMILES strings stand for the structures. Counter-ions that a name gives are not always drawn. Like-named read-outs stand apart in the source and are kept apart here. Some results are limits rather than exact numbers.

Usually ED50 stands for the dose that gives a 50% effect, or the effect in half of the subjects. For `CN1CCc2c(c3ccccc3n2-c2ccccc2)C1` [H, H, CH3, 5-phenyl-2-methyl-1,2,3,4-tetrahydro-γ-carboline, reference compound], the ED50 under setting [1] is 10 to 32 mg/kg.

Regarding `CCN1CCc2c(c3cc(Cl)ccc3n2-c2ccccc2)C1` [Cl, H, C2H5], the ED50 under setting [1] lay within 3.2 to 10 mg/kg.

On to `CN1CCc2c(c3cc(F)ccc3n2-c2ccccc2)C1` [F, H, CH3], for which the ED50 under setting [1] lay within 3.2 to 10 mg/kg.

Regarding `CC(C)(C)CCN1CCc2c(c3cc(F)ccc3n2-c2ccc(F)cc2)C1` [F, F, (CH3)3C(CH2)2, 8-fluoro-5-(p-fluorophenyl)-2-(3,3-dimethyl-n-buty)-1,2,3,4-tetrahydro-γ-carboline], the median effective dose (ED50) is, setting by setting: under setting [1], 1 to 3.2 mg/kg; under setting [2], more than 10 mg/kg; under setting [3], more than 10 mg/kg.

On to `CCCN1CCc2c(c3cc(F)ccc3n2-c2ccc(F)cc2)C1` [F, F, n-C3H7, 8-fluoro-5-(p-fluorophenyl)-2-n-propyl-1,2,3,4-tetrahydro-γ-carboline], for which the 50% effective dose (ED50) is, setting by setting: under setting [1], 3.2 to 10 mg/kg; under setting [2], more than 10 mg/kg; under setting [3], more than 3.2 mg/kg.

For the compound `Fc1ccc(C=CCCN2CCc3c(c4cc(F)ccc4n3-c3ccc(F)cc3)C2)cc1` [F, F, p-FC6H4CHCH(CH2)2, 8-Fluoro-5-(p-fluorophenyl)-2-[4-(p-fluorophenyl)-3-butenyl]-1,2,3,4-tetrahydro-γ-carboline], the ED50 by setting is: under setting [1], 3.2 to 10 mg/kg; under setting [2], 1 to 3.2 mg/kg; under setting [3], more than 3.2 mg/kg.

`CCN1CCc2c(c3cc(F)ccc3n2-c2ccc(F)cc2)C1` [F, F, C2H5, 8-Fluoro-5-(p-fluorophenyl)-2-ethyl-1,2,3,4-tetrahydro-γ-carboline hydrochloride]: the ED50 is, setting by setting: under setting [1], 3.2 to 10 mg/kg; under setting [2], more than 10 mg/kg; under setting [3], more than 10 mg/kg.

For `CN1CCc2c(c3cc(Cl)ccc3n2-c2ccccc2)C1` [Cl, H, CH3, 8-Chloro-5-phenyl-2-methyl-1,2,3,4-tetrahydro-γ-carboline hydrochloride], under setting [1], the median effective dose (ED50) was in the range of 3.2 to 10 mg/kg.

Consider `CN1CCc2c(c3cc(Br)ccc3n2-c2ccccc2)C1` [Br, H, CH3], for which, under setting [1], the median effective dose (ED50) fell in the range of 3.2 to 10 mg/kg.

For `CN1CCc2c(c3cc(F)ccc3n2-c2ccc(F)cc2)C1` [F, F, CH3, 8-Fluoro-5-(p-fluorophenyl)-2-methyl-1,2,3,4-tetrahydro-γ-carboline hydrochloride], the ED50 under setting [1] lay in the range of 1 to 3.2 mg/kg.

As for `CN(C)CCCN1c2ccccc2Sc2ccc(Cl)cc21` [chlorpromazine, reference compound], the ED50 (1 h, read-out: ED50 to antagonize or block amphetamine behavior, 1 hr.) was determined as 7 mg/kg.

Consider `c1ccc(CN2CCc3c(c4ccccc4n3-c3ccccc3)C2)cc1` [H, H, CH2C6H5, 5-phenyl-2-benzyl-1,2,3,4-tetrahydro-γ-carboline, reference compound], for which, under setting [1], the ED50 is more than 32 mg/kg.
